The text below walks through data of ChEMBL document CHEMBL4130472, “Synthesis of naphthazarin derivatives and identification of novel thioredoxin reductase inhibitor as potential anticancer agent” (Eur J Med Chem, 2017).

In data set [1] the test system is HL-60. As to the kind of experiment: Effect on TrxR1 protein expression in human HL60 cells at 1 to 5 uM incubated for 24 hrs by Western blot. The data set is classed as ADME, cell-based. Conditions: hl-60, 24 h.
In data set [2] the test system is HL-60. Put plainly: Cytotoxicity in human HL60 cells assessed as cell viability at 20 uM incubated for 48 hrs by MTT assay. The data set is classed as functional. Particulars: HL-60, 48 h, read-out: Activity. For orientation: Formazan colour is commonly taken as a measure of viable cells.
Data set [3] relates to HL-60. As to the kind of experiment: Cytotoxicity in human HL60 cells assessed as reduction in cell viability incubated for 48 hrs by MTT assay. Format: functional, cell-based. Particulars: HL-60, 48 h.
Another data set has as its system HEK-293T. As to the kind of experiment: Cytotoxicity in human HEK293T cells assessed as reduction in cell viability at 1 to 5 uM incubated for 48 hrs by MTT assay. Format: cell-based.
The next data set deals with L02. Put plainly: Cytotoxicity in human L02 cells assessed as reduction in cell viability at 1 to 5 uM incubated for 48 hrs by MTT assay. The data set is classed as cell-based. Particulars: l02, 48 h.
Data set [4] deals with T1, Thioredoxin reductase 1, cytoplasmic (Rattus norvegicus) (UniProt O89049).
T1 sequence (whole entry): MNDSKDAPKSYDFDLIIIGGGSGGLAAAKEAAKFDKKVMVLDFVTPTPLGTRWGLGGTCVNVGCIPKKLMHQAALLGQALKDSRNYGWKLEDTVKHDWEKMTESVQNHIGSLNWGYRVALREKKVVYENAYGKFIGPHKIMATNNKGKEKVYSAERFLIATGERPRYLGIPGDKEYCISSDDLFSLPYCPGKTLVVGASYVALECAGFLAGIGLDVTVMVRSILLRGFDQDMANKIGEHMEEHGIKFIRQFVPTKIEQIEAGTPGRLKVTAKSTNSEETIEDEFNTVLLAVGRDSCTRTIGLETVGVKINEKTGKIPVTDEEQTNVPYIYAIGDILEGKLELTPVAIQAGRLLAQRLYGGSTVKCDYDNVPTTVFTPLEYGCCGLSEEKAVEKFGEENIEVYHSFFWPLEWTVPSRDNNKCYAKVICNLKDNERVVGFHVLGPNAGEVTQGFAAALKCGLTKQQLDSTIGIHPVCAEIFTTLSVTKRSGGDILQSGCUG
Put plainly: Irreversible inhibition of NADPH-reduced rat TrxR1 assessed as suppression of DTNB reduction incubated for 1 hr followed by compound removal from incubation mixture by column desalting.

Data set [5] concerns the target T2, Glutathione reductase (Rattus norvegicus) (UniProt P70619).
T2 sequence (whole entry): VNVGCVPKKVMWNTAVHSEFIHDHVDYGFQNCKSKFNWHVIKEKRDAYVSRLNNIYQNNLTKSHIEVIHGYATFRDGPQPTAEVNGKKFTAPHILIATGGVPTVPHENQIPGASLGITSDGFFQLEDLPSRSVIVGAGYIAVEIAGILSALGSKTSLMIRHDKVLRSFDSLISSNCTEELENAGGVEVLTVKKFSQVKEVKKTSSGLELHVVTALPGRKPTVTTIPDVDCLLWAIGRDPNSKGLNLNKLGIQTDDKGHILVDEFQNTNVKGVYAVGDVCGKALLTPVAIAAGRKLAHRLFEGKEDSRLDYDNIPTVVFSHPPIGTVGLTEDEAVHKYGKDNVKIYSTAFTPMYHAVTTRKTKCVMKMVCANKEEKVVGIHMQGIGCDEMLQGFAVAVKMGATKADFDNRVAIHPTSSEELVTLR
Put plainly: Inhibition of NADPH-reduced rat glutathione reductase at 1 to 5 uM incubated for 1 hr in presence of NADPH and GSSG.

The target in data set [6] is T3, Thioredoxin reductase 1, cytoplasmic (Homo sapiens) (UniProt Q16881).
T3 sequence (whole entry): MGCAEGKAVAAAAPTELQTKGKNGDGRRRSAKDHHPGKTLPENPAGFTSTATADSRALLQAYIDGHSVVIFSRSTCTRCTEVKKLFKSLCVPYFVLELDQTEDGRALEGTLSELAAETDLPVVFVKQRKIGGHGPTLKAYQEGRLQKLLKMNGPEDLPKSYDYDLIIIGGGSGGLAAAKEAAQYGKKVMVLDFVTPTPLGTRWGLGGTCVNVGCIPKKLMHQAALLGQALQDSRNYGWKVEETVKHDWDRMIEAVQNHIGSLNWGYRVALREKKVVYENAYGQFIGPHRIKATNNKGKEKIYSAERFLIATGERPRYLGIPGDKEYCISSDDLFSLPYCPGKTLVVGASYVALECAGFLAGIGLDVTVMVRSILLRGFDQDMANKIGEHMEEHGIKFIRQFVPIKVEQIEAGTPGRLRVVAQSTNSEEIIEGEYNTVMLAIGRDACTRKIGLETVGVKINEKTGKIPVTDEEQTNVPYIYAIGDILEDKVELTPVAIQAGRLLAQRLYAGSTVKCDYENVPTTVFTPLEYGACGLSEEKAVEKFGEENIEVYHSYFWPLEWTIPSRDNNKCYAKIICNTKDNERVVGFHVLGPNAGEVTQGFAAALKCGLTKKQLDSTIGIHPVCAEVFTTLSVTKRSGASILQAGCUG
Put plainly: Inhibition of TrxR1 in human HL60 cells incubated for 12 hrs by TRFS-green dye based fluorescence assay. The data set is classed as cell-based.

The test system of a further data set is HeLa. As to the kind of experiment: Cytotoxicity in human HeLa cells transfected with non targetting vector assessed as reduction in cell viability at 1 to 5 uM incubated for 48 hrs by MTT assay. Format: functional, cell-based.
Data set [7] has as its system HL-60. Put plainly: Induction of ROS production in human HL60 cells at 1 to 5 uM incubated for 1 hr by DCFH-DA staining based fluorescence assay. Format: functional, cell-based.
Data set [8] relates to HL-60. As to the kind of experiment: Induction of ROS production in human HL60 cells at 1 to 5 uM incubated for 1 hr by DHE staining based fluorescence assay. The data set is classed as functional, cell-based.
Data set [9] relates to HL-60. Put plainly: Reduction in intracellular thiols in human HL60 cells at 1 to 5 uM incubated for 24 hrs by DTNB titration method. Format: functional, cell-based.
Data set [10] relates to HL-60. As to the kind of experiment: Reduction in GSH/GSSG ratio in human HL60 cells at 1 to 5 uM incubated for 24 hrs by enzymatic recycling method. The data set is classed as functional, cell-based.
For data set [11], the system named is HL-60. Put plainly: Cytotoxicity in human HL60 cells assessed as induction of cell death at 1 uM incubated for 24 hrs by MTT assay. The data set is classed as functional.
Data set [12] has as its system HL-60. Put plainly: Potentiation of H2O2-induced cytotoxicity in human HL60 cells assessed as induction of cell death at 1 uM incubated for 24 hrs by MTT assay (reference value: 4%). Format: functional.
For data set [13], the system named is HL-60. Put plainly: Potentiation of H2O2-induced cytotoxicity in human HL60 cells assessed as induction of cell death at 3 uM incubated for 24 hrs by MTT assay. Format: functional, cell-based.
For data set [14], the system named is HL-60. Put plainly: Induction of apoptosis in human HL60 cells assessed as increase in caspase-3 activity at 1 to 3 uM incubated for 24 hrs using Ac-DEVD-pNA substrate by colorimetric assay. Format: functional, cell-based.
In data set [15] the test system is HL-60. As to the kind of experiment: Induction of apoptosis in human HL60 cells 0.5 uM incubated for 24 hrs by Annexin V/propidium iodide staining based flow cytometry. The data set is classed as functional.
Data set [16] concerns HL-60. Put plainly: Induction of apoptosis in human HL60 cells 1 uM incubated for 24 hrs by Annexin V/propidium iodide staining based flow cytometry. Format: functional. A general note: A flow cytometer gives signals particle by particle.
Data set [17] deals with HL-60. Put plainly: Induction of apoptosis in human HL60 cells 5 uM incubated for 24 hrs by Annexin V/propidium iodide staining based flow cytometry. The data set is classed as functional.
Data set [18] deals with HL-60. Put plainly: Induction of necrosis in human HL60 cells 5 uM incubated for 24 hrs by Annexin V/propidium iodide staining based flow cytometry. Format: functional, cell-based.

The source made the active and inactive calls. The rule behind the calls is not given here.

With `CC1=CC(=O)c2c(O)ccc(O)c2C1=O`, the Activity result is “Non-Toxic” in the data set on HL-60 [1]; “Non-Toxic” with HEK-293T; “Non-Toxic” in the data set with L02; “Dose-dependent effect” in the data set with HL-60 [8]; “Dose-dependent effect” with HL-60 [10]; 27% with HL-60 [11]. Moreover, the Activity is reported as greater than 43% with HL-60 [12], 10% in the data set on HL-60 [15], 23% with HL-60 [16] and 56% in the data set with HL-60 [17]. Moreover, the viability at 20 µM in the data set with HL-60 [2] worked out at 0%. Besides, in the data set on HL-60 [3], the IC50 – broadly, the concentration that inhibits the measured activity by half – came to 720 nM. Further, the inhibition entry in [4] was “Active”. Moreover, the inhibition result in data set [5] was “inactive”. Moreover, the inhibition result in [6] is “Dose-dependent effect”. Also, the outcome in the data set with HeLa, in the data set on HL-60 [7], with HL-60 [9], with HL-60 [13], in the data set with HL-60 [14] and in the data set on HL-60 [18] was Active.
